Measurements as given in US20260286302A1, “METHODS FOR PRODUCING A SUPER CENTRAL MEMORY CD8 T CELL SUBTYPE BY POLY(ADP-RIBOSE) POLYMERASE (PARP) INHIBITION AND USES THEREOF” (Georgetown University, priority 2023, published 2026).

Test system: pMel-1 CD8 T cells
Experiment: Metabolomics and lipidomics of activated CD8 T cells
Format: cell-based, mouse
Conditions: PARPi-treated vs gp100 activated, 48 h
Description: Targeted metabolomics method, developed in-house, was used to quantitate 270 endogenous metabolites using QTRAP® 7500 LC-MS/MS System (Sciex, MA, USA). For this purpose, 20 μL of PBS was added to the cell pellet and sample tube was plunged into dry ice for 30 seconds and 37° C. water bath for 90 seconds. This cycle was repeated for two more times and then samples were sonicated for 1 minute and 100 μL of extraction buffer (methanol/water 50/50) containing 200 ng/ml of debrisoquine (DBQ) as internal standard for positive mode and 200 ng/mL of 4-nitrobenzoic acid as internal standard for negative mode was added. The samples were vortexed for 1 min and kept on ice for 20 minutes followed by addition of 100 μL of ACN. The samples were incubated at −20° C. for 20 minutes for protein precipitation. The samples were centrifuged at 13,000 rpm for 20 minutes at 4° C. The supernatant was transferred to MS vial for LC-MS analysis. 20 μL of each prepared sample was mixed to generate the pooled QC sample.
Five microliter of the prepared sample was injected onto a Kinetex 2.6 μm polar C18 100 Å 100×3.0 mm (Phenomenex, CA, USA) using SIL-30AC autosampler (Shimadzu) connected with a high flow LC-30AD solvent delivery unit (Shimadzu) and CBM-20A communication bus module (Shimadzu) online with QTRAP 5500 (Sciex, MA, USA) operating in positive and negative ion mode. A binary solvent comprising of water with 0.1% formic acid (solvent A) and acetonitrile with 0.1% formic acid (solvent B) was used. The extracted metabolites were resolved at 0.2 mL/min flow rate. The LC gradient conditions were as follows: Initial—100% A, 0% B for 2.1 minutes; 14 minutes—5% A, 95% B till 15 minutes; 15.1 minutes—100% A, 0% B till 20 minutes. The auto sampler and oven were kept at 15° C. and 30° C., respectively. Source and gas setting for the method were as follow: curtain gas=40, CAD gas=9, ion spray voltage=1700 V in positive mode and ion spray voltage=1600 V in negative mode, temperature=350° C., ion source gas 1=30 and ion source gas 2=50. […]

Question: With O=C(c1cc(Cc2n[nH]c(=O)c3ccccc23)ccc1F)N1CCN(C(=O)C2CC2)CC1 [olaparib] as the compound, how does the “TAGs (lipidomic analysis)” value read?
Answer: increased level

Question: And the “metabolites related to TCA cycle (fumarate, malate, glutamate, FAD)” value?
Answer: significantly increased

Question: And the “top 50 differentially expressed metabolites” value?
Answer: increased
